Laboratory results as given in US20260092085A1, “SYNTHETIC TRIPLEX PEPTIDE NUCLEIC ACID-BASED INHIBITORS FOR CANCER THERAPY” (University of Connecticut, priority 2022, published 2026).
{RR} = two arginine residues at the PNA terminus

Key:
miR-155 = miR-155 gene expression in SUDHL-2 xenograft tumors; set-up: species or system NSG mice; settings: SUDHL-2 xenograft after in vivo treatment
Method: Data normalized with average control U6 (n=4) and represented as mean±standard error mean. Unpaired t test was used for statistical analysis. Further statistical analysis was performed relative to Scr-γtcPNA-155. **p<0.01, ***p<0.001.
(§1) Further, we corroborated our results in the SUDHL-2 derived xenograft mouse model. We injected the SUDHL-2 cells in the right and left flank of mice. After 14-21 days, when the tumor volume reached 100-200 mm3, the mice were randomized into three treatment groups based on uniform tumor volume distribution in each group. […] (FIG. 27)

SUDHL-2 tumors = test: Tumor growth in SUDHL-2 derived xenograft; type: in vivo, NSG mice; settings: SUDHL-2 xenograft, intratumoral, compared to Scr-γtcPNA-155 and PNA-155 control
Method: Data represented as mean±standard error mean (SEM). Scr-γtcPNA-155 (n=4), PNA-155 (n=5), γtcPNA-155 (n=5), *p<0.05, **p<0.01, ***p<0.001, ****p<0.0001. Multiple t-tests one per row was used for statistical analysis.
For SUDHL-2 xenografts, 1×10^7 SUDHL-2 cells suspended in RPMI-1640 medium were injected subcutaneously in the right and left flank of 6-week-old NSG mice. The mice developed a small bump in 2-3 weeks. When the tumor volume reached 100-200 mm^3, the mice were randomly allocated to the treatment group (n=5 per group).
as §1

U2932 cells [1] = test: Cell viability by trypan blue assay, U2932; type: cell-based, human
Method: (§2) Cell viability was performed using trypan blue-based assay (n=3 technical triplicate), data represented as mean±(SEM), * represents the statistical analysis were performed relative to Scr-γtcPNA-155 and ♦ represent analysis performed relative to PNA-155. *p<0.05, **p<0.01, ***p<0.001 and ****p<0.0001, ♦p<0.05, ♦♦p<0.01, unpaired two-tailed t-test was used for statistical analysis. The experiment was repeated three times and in triplicate.
(§3) Cell viability was performed using trypan blue-based assay (n=3), data represented as mean±standard error mean (SEM), *p<0.05, **p<0.01. Unpaired two-tailed t-test was used for statistical analysis.
(§4) Cell viability was performed using trypan blue-based assay (n=3), data represented as mean±standard error mean (SEM).
(§5) Cell viability by trypan blue assay: Diffused large B cell lymphoma (DLBCL) cell lines like SUDHL-2 (ATCC® CRL-2956™) and SUDHL-5 (ATCC® CRL-2958™) cells were purchased from ATCC (Virginia, USA). The cells were regularly tested for Mycoplasma contamination using MycoAlert™ Mycoplasma detection kit (Lonza). All the cells used in the experiment were passaged less than 8 times. 10,000 U2932, SUDHL-5, or SUDHL-2 cells were plated in a 96 well plate. The cells were treated with different doses (500 nM, 1000 nM, 2000 nM and 4000 nM) of PNA-155, gamma tcPNA-155 or Scr-γtcPNA-155 for 48 hrs in an incubator (37° C. and 5% CO2). The dead cells were marked with trypan blue. Further counting was performed using an automated cell counter (Bio-rad).

SUDHL-2 cells = test: Cell viability by trypan blue assay, SUDHL-2; type: cell-based
Method: as §2, §3, §4, §5

U2932 cells [2] = test: Annexin V-based apoptosis assay in U2932 cells; type: cell-based, human; settings: 48 hours
Method: Quantification of apoptotic cells by flow cytometry after treating U2932 cells with PBS as a control and 500 nM Scr-γtcPNA-155, PNA-155, γPNA-155 and γtcPNA-155 for 48 hours. The apoptotic cells and necrotic were stained using Phycoerythrin (PE) Annexin V and 7-Amino-Actinomycin (7-AAD) respectively. The % apoptotic cells after treatment was compared to the PBS treated cells, by setting the same threshold. Bar graph of % apoptotic cells (n=3 technical triplicate), data represented as mean±standard error mean (SEM), *p<0.05, **p<0.01, ***p<0.001, unpaired two-tailed t-test was used for statistical analysis. Representative dot plots of Scr-γtcPNA-155 and γtcPNA-155 treated U2932 cells. The experiment was repeated three times and in triplicate. One out of three representative experiments are shown.
The apoptotic cells and necrotic were stained using Phycoerythrin (PE) Annexin V and 7-Amino-Actinomycin (7-AAD) respectively. The % apoptotic cells after treatment was compared to the PBS treated cells, by setting the same threshold. Bar graph of % apoptotic cells (n=3 technical triplicate), data represented as mean±standard error mean (SEM), **p<0.01, unpaired two-tailed t-test was used for statistical analysis. Representative dot plots of PBS treated and γtcPNA-155 treated U2932 cells. The experiment was repeated three times and in triplicate. One out of three representative experiments is shown.
Apoptosis Assay: 400,000 U2932 cells were seeded in a 12 well plate. The cells were treated with 500 nM PNA-155, γPNA-155, γtcPNA-155, Scr-γ tcPNA-155 or were PBS treated (control) for 48 hrs in an incubator (37° C., 5% CO2). The cells were washed with PBS twice. The cells were centrifuged at 2000 rpm for 4 mins at 4° C. The cell pellet was suspended in IX Annexin V binding buffer. The cells were then counted and 100 μL of cell suspension (containing 2.5×10^5 cells) was passed through the FACS tube. […] 400 μL of IX Annexin V binding buffer was added to the cells and the cells were then analyzed using LSR Fortessa™ X-20 Cell analyzer as indicated above. […]

Row | Substance | miR-155 expression level in tumors (miR-155) | tumor growth (SUDHL-2 tumors) | reduction in cell viability at 500 nM (U2932 cells [1]; U2932, 500 nM, compared to PNA-155 treated group) | decrease in cell viability (U2932 cells [1]; U2932, 4UM, 48 hours) | reduction in cell viability at 500 nM (SUDHL-2 cells; SUDHL-2, 500 nM, compared to PNA-155 treated group) | decrease in cell viability (SUDHL-2 cells; SUDHL-2, 4UM, 48 hours) | apoptosis by Annexin-V FITC confocal imaging (U2932 cells [2]; U2932, 500 nM) | apoptosis by annexin V flow cytometry (U2932 cells [2]; U2932, 500 nM, versus PNA-155 and γPNA-155 treated group) | increase in apoptosis in comparison to control (U2932 cells [2]; U2932, 10 uM)
1 | PNA-155: conventional full-length regular PNA (23mer), RR-ACCCCTATCACGATTAGCATTAA-RR, SEQ ID NO: 1 (all peptide nucleic acid (PNA), 5' {RR}, 3' {RR}) [reference compound] | significantly reduces miR-155 expression level | – | – | – | – | – | – | – | –
2 | γtcPNA-155: serine gamma tail-clamp anti-miR-155 PNA, RR-TJJJJ-OOO-ACCCCTATCACGATTAGCATTAA-RR, SEQ ID NO: 3 (all peptide nucleic acid (PNA); serine gamma PNA, tail-clamp TJJJJ via linkers, Arg-Arg at both ends) | – | reduced the tumor growth | significant reduction in cell viability | ~80% | significant reduction in cell viability | ~80% | higher apoptosis | increased apoptosis | 4.5 fold
